A word on the EC50: it is the concentration that produces a half-maximal response. A high value points to weaker potency.

Experiment [1] deals with T1, PIG-tailed EPO-R (Homo sapiens, UniProt P19235).
T1 construct: comprised the extracellular domain of the EPO-receptor and was produced in recombinant host cells; thrombin cleavage site (internal); made in house
T1 sequence (P19235 25-250 limits assumed): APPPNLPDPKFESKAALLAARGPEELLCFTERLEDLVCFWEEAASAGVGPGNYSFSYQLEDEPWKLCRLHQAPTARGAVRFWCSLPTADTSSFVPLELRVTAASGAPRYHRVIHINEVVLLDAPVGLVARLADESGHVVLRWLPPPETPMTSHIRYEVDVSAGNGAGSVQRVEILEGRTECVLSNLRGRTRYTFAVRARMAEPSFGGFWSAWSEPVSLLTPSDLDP
Nature of the experiment: radioligand competition binding assay against PIG-tailed EPO-R immobilized on mAb179. The source says: The immobilized receptor used in the panning and ELISA procedures comprised the extracellular domain of the EPO-receptor and was produced in recombinant host cells. This receptor molecule can be produced in a variety of different forms and host cells. One useful form is constructed with a signal peptide for protein secretion and for glycophospholipid membrane anchor attachment (this form of anchor attachment is called "PIG-tailing;" see, Caras and Weddell, 3 March. 1989, Science 243:1196-1198; and Lin et al., 10 Aug. 1990, Science 249:677-679, each of which is incorporated herein by reference). This system allows for cleavage of the receptor from the surface of the cells expressing the receptor and collection of the cleaved receptor quite easily. Preferably, a protease cleavage site, such as a thrombin cleavage site, is inserted between the HPAP epitope of the PIG-tailed receptor and the receptor itself.
The recombinant receptor protein was immobilized using the following methodology. Microtiter plates were coated within an and-receptor antibody and the wells which were to contain the immobilized receptor were treated with bovine serum albumin (BSA) to block non-specific binding. The PIG-tailed receptor having a thrombin cleavage site was added to the coated wells of the microtiter plate, which were then washed to remove unbound receptor.
IC50s were calculated for several of the peptides falling within the general motifs described above. (Each of these peptides were independently synthesized and are C-terminally amidated, but could be easily prepared as the free carboxy acid or as an ester or other carboxy amide.)
This peptide was incubated with streptavidin in PBS at a 4:1 molar ratio at room temperature for one hour. Following this, the complex was introduced into the PIG-tailed EPO-R binding assay for IC50 determination. Peptide that had not been complexed to streptavidin was also run in the same experiment. […] Since this comparison was made using the free peptide concentrations and not the effective complex concentration (theoretically 4-fold lower), the effect will be even greater.
Figures 13 and 14 show the in vitro EPOR binding and biological activities of the dimer. The affinity of the dimer was tested against the PIG-tailed EPOR immobilized on mAb179 in strip wells.

In experiment [2] the test system is Female BDF1 mice. Nature of the experiment: polycythemic exhypoxic mouse bioassay. Format: in vivo. The following applies: approximate equivalency. Here is the method:
Female BDF1 mice (18-20 gms) are subjected to a conditioning cycle (in hypobaric chambers) of 18 hrs. at 0.40 ± 0.02 atm. and 6 hrs. at ambien pressure for a period of 14 days.
Mice are maintained at ambient pressure for 72 hrs prior to administration of r-HuEPO or test samples. Test samples or r-HuEPO standard are diluted for injection into conditioned mice. The vehicle consists of: PBS containing 0.1 % BSA (w/v). For each dilution, 0.5 ml is administered subcutaneously into each of 10 mice. ^59Fe is administered 48 hrs. later. Blood samples are taken 48 hrs. following administration of ^59Fe. Hematocrits and radioactivity measurements are determined for each sample. Dose range and results (two different assays) are set forth in Table 23 and Figures 17A-17C, infra.

Experiment [3] has as its system FDCP-1/hEPO-R. The following applies: for increase in potency over the parental peptide: EC50 of dimer vs GGTYSCHFGPLTWVCKPQGG
Here is the method:
One assay utilized FDCP-1, a growth factor dependent murine multi-potential primitive hematopoietic progenitor cell line (see, e.g.. Dexter et al. (1980) J. Exp. Med. 152:1036-1047), as the parental cell line. This cell line can proliferate, but not differentiate, when supplemented with WEHI3-conditioned media (a medium that contains IL-3, ATCC number T1B68).
In brief, the cells are grown to half stationary density in the presence of the necessary growth factors. The cells are then washed in PBS and starved for 16-24 hours in whole media without the growth factors. After determining the viability of the cells, stock solutions (in whole media without the growth factors) are made to give about 10^5 cells per 50 microliters. […] Cells (50 microliters) are added to each well and the cells are incubated 24-48 hours, at which point the negative controls should die or be quiescent. Cell proliferation is then measured by techniques known in the art, such as an MTT assay which correlates with ^3H-thymidine incorporation as an indication of cell proliferation (see, Mosmann (1983) J. Immunol. Methods 65:55).
In addition, this peptide was preincubated with streptavidin in serum-free HEPES-buffered RPMI at a 4:1 molar ratio, as above. The complex was tested for stimulation of cell proliferation in an FDCP-1/hEPO-R bioassay alongside free […] (Ahx-biotin)) and the unbiotinylated parental peptide, i.e., […].

Experiment [4] has as its system FDC-P1/ER (murine receptor). The experiment in a line: peptide dependent growth of EPO-responsive cell line FDC-P1/ER (thymidine incorporation). Format: cell-based. The method, then:
• a. […] Cell Proliferation Assay: • i. […] Peptide is added to each well in triplicate.

For experiment [5], the target named is T2, extracellular domain of the human erythropoietin receptor (EPO binding protein, EBP) (Homo sapiens, UniProt P19235).
T2 construct: made in house
T2 sequence (P19235 25-250 limits assumed): T1 sequence (P19235 25-250 limits assumed)
Nature of the experiment: immobilized EBP based [125I]EPO competition binding assay. The method, then:
The mixture was rocked gently for 30 minutes at room temperature, and the beads were allowed to settle for 1 hour at room temperature. The supernatant was removed and retained, and the beads were washed twice with 20 ml of coupling buffer.
Competitive binding analysis assays of candidate peptides were performed as outlined below. Individual peptides were dissolved in DMSO to prepare a stock solution of 1 mM. […] Initial assay points with no added peptide were included in each assay to determine total binding. Binding mixtures were incubated overnight at room temperature with gentle rocking. The beads were then collected using Micro-columns (Isolab, Inc., Akron, Ohio) and washed with 3 mL of wash buffer.

Where [6] appears, read: free peptide, C-terminally amidated, read-out: IC50.

Read-outs that look alike come from different tables or passages of the source. Positions of bridges follow the written chain, without caps; N, C: chain ends. Residues, ends and D or L forms follow the SMILES beside them. Chains are numbered I, II in the order given. No end group written: not given here.

Consider `CC[C@H](C)[C@@H]1NC(=O)[C@@H]2CCCN2C(=O)CNC(=O)[C@H](Cc2ccccc2)NC(=O)[C@H](Cc2c[nH]cn2)NC(=O)[C@@H](NC(=O)[C@H](CCSC)NC(=O)[C@H](Cc2ccc(O)cc2)NC(=O)[C@H](CC(N)=O)NC(=O)CNC(=O)[C@@H](N)C(C)C)CSSC[C@@H](C(=O)N[C@@H](CCCNC(=N)N)C(=O)N2CCC[C@H]2C(=O)NCC(=O)NCC(=O)NCC(N)=O)NC(=O)[C@H](C(C)C)NC(=O)[C@H](Cc2c[nH]c3ccccc23)NC(=O)[C@H]([C@@H](C)O)NC1=O` (HELM PEPTIDE1{V.G.N.Y.M.C.H.F.G.P.I.T.W.V.C.R.P.G.G.G.[am]}$PEPTIDE1,PEPTIDE1,6:R3-15:R3$$$V2.0; N-terminus assumed), for which the IC50 in experiment [1] (setting [6]) is 420 nM. As to TIAQYICYMGPETWECRPSPKA [AF11654], the “Amount of Peptide Equivalent to 0.025 units of EPO” value in experiment [2] is 11 to 21 nmol. As for `CC[C@H](C)[C@@H]1NC(=O)[C@@H]2CCCN2C(=O)CNC(=O)[C@H](CCSC)NC(=O)[C@H](CCCNC(=N)N)NC(=O)[C@@H](NC(=O)[C@H](C)NC(=O)[C@H](Cc2ccc(O)cc2)NC(=O)[C@@H](NC(=O)CNC(=O)CN)C(C)C)CSSC[C@@H](C(=O)N[C@@H](CO)C(=O)N2CCC[C@H]2C(=O)N[C@@H](CC(C)C)C(=O)NCC(=O)NCC(N)=O)NC(=O)[C@H](C(C)C)NC(=O)[C@H](Cc2c[nH]c3ccccc23)NC(=O)[C@H]([C@@H](C)O)NC1=O` (HELM PEPTIDE1{G.G.V.Y.A.C.R.M.G.P.I.T.W.V.C.S.P.L.G.G.[am]}$PEPTIDE1,PEPTIDE1,6:R3-15:R3$$$V2.0; N-terminus assumed), in experiment [1] (setting [6]), the IC50 came out at 352 nM. For the molecule VGNYMAHMGPITWVCRPGG-NH2, the IC50 in experiment [1] (setting [6]) was found to be 67000 nM. The same measure, in the same setting: the value for `CC(C)C[C@H](NC(=O)CNC(=O)CN)C(=O)N[C@@H](Cc1ccc(O)cc1)C(=O)N[C@@H](CC(C)C)C(=O)N[C@H]1CSSC[C@@H](C(=O)NCC(=O)N[C@@H](Cc2ccc(O)cc2)C(=O)N[C@@H](CCCCN)C(=O)NCC(=O)NCC(N)=O)NC(=O)[C@H](CC(=O)O)NC(=O)[C@H](Cc2c[nH]c3ccccc23)NC(=O)[C@H]([C@@H](C)O)NC(=O)[C@H](C(C)C)NC(=O)[C@@H]2CCCN2C(=O)CNC(=O)[C@H](Cc2ccccc2)NC(=O)[C@H](CCCNC(=N)N)NC1=O` (HELM PEPTIDE1{G.G.L.Y.L.C.R.F.G.P.V.T.W.D.C.G.Y.K.G.G.[am]}$PEPTIDE1,PEPTIDE1,6:R3-15:R3$$$V2.0; N-terminus assumed) was 1670 nM. `CC(C)C[C@@H]1NC(=O)[C@@H]2CCCN2C(=O)CNC(=O)[C@H](Cc2ccccc2)NC(=O)[C@H](Cc2c[nH]cn2)NC(=O)[C@@H](NC(=O)[C@H](CO)NC(=O)[C@H](Cc2ccc(O)cc2)NC(=O)[C@@H](NC(=O)CNC(=O)CN)[C@@H](C)O)CSSC[C@@H](C(=O)N[C@@H](CCCCN)C(=O)N2CCC[C@H]2C(=O)N[C@@H](CCC(N)=O)C(=O)NCC(=O)NCC(=O)N[C@@H](CO)C(=O)N[C@@H](CO)C(=O)N[C@@H](CCCCNC(=O)CCCCCNC(=O)CCCC[C@@H]2SC[C@@H]3NC(=O)N[C@@H]32)C(N)=O)NC(=O)[C@H](C(C)C)NC(=O)[C@H](Cc2c[nH]c3ccccc23)NC(=O)[C@H]([C@@H](C)O)NC1=O` [AF11505] (HELM PEPTIDE1{G.G.T.Y.S.C.H.F.G.P.L.T.W.V.C.K.P.Q.G.G.S.S.K.[am]}|PEPTIDE2{[O=C1N[C@H]2[C@H](CS[C@H]2CCCCC(=O)[*:2])N1].[O=C(CCCCCN[*:1])[*:2]]}$PEPTIDE1,PEPTIDE2,23:R3-2:R2|PEPTIDE1,PEPTIDE1,6:R3-15:R3$$$V2.0; N-terminus and C-terminus assumed; bridges inferred): in experiment [3] (free peptides), the EPO-ED50 entry was “approximately 1 µM”. Turning to `CSCC[C@@H]1NC(=O)[C@H](CCCNC(=N)N)NC(=O)[C@@H](NC(=O)[C@H](Cc2c[nH]cn2)NC(=O)[C@H](Cc2ccc(O)cc2)NC(=O)[C@H](CC(=O)O)NC(=O)CNC(=O)CN)CSSC[C@@H](C(=O)N[C@@H](CCCCN)C(=O)N2CCC[C@H]2C(=O)N[C@@H](CC(C)C)C(=O)NCC(=O)NCC(N)=O)NC(=O)[C@H](C(C)C)NC(=O)[C@H](Cc2c[nH]c3ccccc23)NC(=O)[C@H]([C@@H](C)O)NC(=O)[C@H](CC(C)C)NC(=O)[C@@H]2CCCN2C(=O)CNC1=O` (HELM PEPTIDE1{G.G.D.Y.H.C.R.M.G.P.L.T.W.V.C.K.P.L.G.G.[am]}$PEPTIDE1,PEPTIDE1,6:R3-15:R3$$$V2.0; N-terminus assumed), the IC50 in experiment [1] (setting [6]) came out at 179 nM. As to “I: GGTYSCHFGPLTWVCKPQGGK-NH2 / II: GGTYSCHFGPLTWVCKPQGG (disulfide I:6-I:15, II:6-II:15 (inferred); amide I:21-II:C (inferred); C-terminus assumed) [AF12080]”, in experiment [1] (affinity vs GGTYSCHFGPLTWVCKPQGG), the “increase over the value for the parental peptide” value was 200 fold. Moreover, in experiment [1] (affinity vs GGTYSCHFGPLTWVCKPQGGSSK (Ahx-biotin)-streptavidin complex), the “increase over the streptavidin complex” value worked out at 5 fold. In addition, in experiment [2], the “Amount of Peptide Equivalent to 0.025 units of EPO” value stood at 0.035 nmol. The figures for the “increase in potency over the parental peptide” value in experiment [3] and in experiment [3] (listed as dimeric peptide analog of GGTYSCHFGPLTWVCKPQGG) were “approximately 20 fold” and 20 fold, respectively.

Turning to `CC(C)C[C@@H]1NC(=O)[C@@H]2CCCN2C(=O)CNC(=O)[C@H](Cc2ccccc2)NC(=O)[C@H](Cc2c[nH]cn2)NC(=O)[C@@H](NC(=O)[C@H](CO)NC(=O)[C@H](Cc2ccc(O)cc2)NC(=O)[C@@H](NC(=O)CNC(=O)CN)[C@@H](C)O)CSSC[C@@H](C(=O)N[C@@H](CCCCN)C(=O)N2CCC[C@H]2C(=O)N[C@@H](CCC(N)=O)C(=O)NCC(=O)NCC(N)=O)NC(=O)[C@H](C(C)C)NC(=O)[C@H](Cc2c[nH]c3ccccc23)NC(=O)[C@H]([C@@H](C)O)NC1=O` [RWJ 61233] (HELM PEPTIDE1{G.G.T.Y.S.C.H.F.G.P.L.T.W.V.C.K.P.Q.G.G.[am]}$PEPTIDE1,PEPTIDE1,6:R3-15:R3$$$V2.0), the EPO-ED50 in experiment [4] came out at 100 nM. Moreover, the IC50 in experiment [5] amounted to 5000 nM; in experiment [1] (equilibrium competition binding assay, strip wells, read-out: affinity) it was 200 nM; in experiment [1] (setting [6]) it was 237 nM. It took 400 nM to reach a half-maximal effect in experiment [3] (EC50).

Source of the values: EP0886648B1 (ORTHO PHARMACEUTICAL CORPORATION, priority 1995, dated 1996).
